# According to patent publication US12227491B2, “EGFR inhibitors” (INVENTISBIO CO., LTD., priority 2018, dated 2025):
# Where two headings read alike, the source gives them in different places.
# Assays:
# wild-type EGFR (WT-EGFR) = wild-type EGFR (WT-EGFR) (Homo sapiens, UniProt P00533); details: major metabolite of AZD9291; cited from earlier work
# [1] = Hygroscopicity of crystalline Form I on storage at 25° C., 80% relative humidity; type: physicochemical
# [2] = Solid-state stability of Form I under thermal treatment and mechanical grinding (XRPD); type: physicochemical
# Procedure: POWDER X-RAY DIFFRACTION (XRPD): The solid samples from screening were examined using X-ray diffractometer (Bruker D8 advance). The system is equipped with LynxEye detector. The samples were scanned from 3 to 40° 2θ, at a step size 0.02° 2θ. The tube voltage and current were 40 KV and 40 mA, respectively. The sample was transferred from sample container onto zero background XRD-holder and gently ground.
# DSC ANALYSIS: DSC analysis was conducted on a TA Instruments Q200. The calibration standard was indium. A sample in weight was placed into a TA DSC pan, and weight accurately recorded. Crimped pans were used for analysis and the samples were heated under nitrogen (50 mi/min) at a rate of 10° C./min, up to a final temperature.
# NSCLC patients = details: cited from earlier work
# Chain of wild-type EGFR (WT-EGFR) (P00533 25-1210): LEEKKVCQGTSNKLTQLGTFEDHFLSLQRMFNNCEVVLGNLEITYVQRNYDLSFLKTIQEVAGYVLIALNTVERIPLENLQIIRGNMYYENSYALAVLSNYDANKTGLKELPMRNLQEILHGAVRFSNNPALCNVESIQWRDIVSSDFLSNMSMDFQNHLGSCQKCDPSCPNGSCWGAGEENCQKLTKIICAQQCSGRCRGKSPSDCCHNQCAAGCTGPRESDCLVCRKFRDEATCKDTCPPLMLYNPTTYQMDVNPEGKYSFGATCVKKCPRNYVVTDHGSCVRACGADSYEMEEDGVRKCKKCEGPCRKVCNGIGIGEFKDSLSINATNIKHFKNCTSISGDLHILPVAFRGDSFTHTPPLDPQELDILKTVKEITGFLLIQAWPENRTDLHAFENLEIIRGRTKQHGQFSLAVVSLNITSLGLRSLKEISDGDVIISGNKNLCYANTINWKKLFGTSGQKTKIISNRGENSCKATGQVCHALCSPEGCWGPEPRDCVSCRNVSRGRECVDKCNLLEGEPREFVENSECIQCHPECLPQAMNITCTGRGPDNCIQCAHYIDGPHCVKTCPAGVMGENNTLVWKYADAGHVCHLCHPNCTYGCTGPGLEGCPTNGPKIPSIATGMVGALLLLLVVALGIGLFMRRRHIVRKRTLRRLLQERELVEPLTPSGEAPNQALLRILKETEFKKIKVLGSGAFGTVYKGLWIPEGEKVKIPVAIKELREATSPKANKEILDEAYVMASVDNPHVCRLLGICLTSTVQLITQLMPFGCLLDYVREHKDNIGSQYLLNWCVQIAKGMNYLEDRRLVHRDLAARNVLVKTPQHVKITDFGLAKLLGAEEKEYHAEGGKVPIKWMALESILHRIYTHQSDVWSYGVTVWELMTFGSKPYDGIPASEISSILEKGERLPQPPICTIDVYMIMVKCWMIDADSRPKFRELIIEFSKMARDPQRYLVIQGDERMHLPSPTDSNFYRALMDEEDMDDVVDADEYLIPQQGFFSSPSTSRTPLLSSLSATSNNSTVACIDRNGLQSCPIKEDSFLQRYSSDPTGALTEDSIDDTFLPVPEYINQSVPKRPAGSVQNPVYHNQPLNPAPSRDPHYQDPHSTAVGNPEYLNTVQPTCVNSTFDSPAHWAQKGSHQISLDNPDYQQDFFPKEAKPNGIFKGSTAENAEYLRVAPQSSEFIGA
smiles,measurement,setting,value
C=CC(=O)Nc1cc(Nc2nccc(-c3c[nH]c4ccccc34)n2)c(OC)cc1N(C)CCN(C)C [AZ5104],inhibitory effect on wild-type EGFR,wild-type EGFR (WT-EGFR),strong inhibitory effect
"C=CC(=O)Nc1cc(Nc2nccc(-c3cn(CC(F)(F)F)c4ccccc34)n2)c(OC)cc1N(C)CCN(C)C [Compound 5, N-(2-((2-(dimethylamino)ethyl)(methyl)amino)-4-methoxy-5-((4-(1-(2,2,2-trifluoroethyl)-1H-indol-3-yl)pyrimidin-2-yl)amino)phenyl)acrylamide monomesylate]",increase in weight upon storing,"[1]; 25° C., relative humidity of 80%",only negligible increase in weight
same,hygroscopicity,[1]; crystalline Form I,non-hygroscopic
same,crystallinity after mechanical grinding,[2]; Form I grinded mechanically,some loss of crystallinity
same,solid form after thermal treatment,"[2]; crystals heated in DSC cells to 220° C., then immediately placed into ice (quench), XRPD",converted into an amorphous form
C#Cc1cccc(Nc2ncnc3cc(OCCOC)c(OCCOC)cc23)c1 [erlotinib],share of patients in whom the drug has effect,NSCLC patients; Asian NSCLC patients,about 35%
same,share of patients in whom the drug has effect,NSCLC patients; Caucasian patients with NSCLC,about 10%
COc1cc2ncnc(Nc3ccc(F)c(Cl)c3)c2cc1OCCCN1CCOCC1 [gefitinib],share of patients in whom the drug has effect,NSCLC patients; Asian NSCLC patients,about 35%
same,share of patients in whom the drug has effect,NSCLC patients; Caucasian patients with NSCLC,about 10%
